Measured values taken from publication PMC3604040 (Biochemical pharmacology, 2013).

Legend:
[1] = target: T1, UDP-glucuronosyltransferase (UGT 2B7) (Homo sapiens, UniProt P16662)
T1 sequence (P16662 24-529): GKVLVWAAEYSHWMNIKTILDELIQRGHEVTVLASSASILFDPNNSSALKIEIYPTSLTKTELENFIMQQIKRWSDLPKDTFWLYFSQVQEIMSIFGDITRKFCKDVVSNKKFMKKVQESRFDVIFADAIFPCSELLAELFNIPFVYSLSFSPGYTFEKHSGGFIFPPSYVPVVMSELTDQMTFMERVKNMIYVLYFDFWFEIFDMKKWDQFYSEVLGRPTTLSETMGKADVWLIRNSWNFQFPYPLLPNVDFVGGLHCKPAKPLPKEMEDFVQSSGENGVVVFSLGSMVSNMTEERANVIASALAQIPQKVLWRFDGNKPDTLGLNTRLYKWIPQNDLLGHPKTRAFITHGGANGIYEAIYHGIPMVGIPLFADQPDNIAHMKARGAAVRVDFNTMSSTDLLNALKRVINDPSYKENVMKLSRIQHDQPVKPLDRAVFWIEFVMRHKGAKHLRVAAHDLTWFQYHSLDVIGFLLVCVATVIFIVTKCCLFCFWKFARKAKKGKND

[2] = Metabolism and stability of PTI in mouse liver microsomes; type: in vitro ADME; conditions: 0.5 mg/ml protein
[3] = Metabolism and stability of PTI in rat liver microsomes; type: in vitro ADME; conditions: 0.5 mg/ml protein
[4] = Metabolism and stability of PTI in human liver microsomes; type: in vitro ADME; conditions: for metabolite formation in PTI-treated HLMs in the absence of NADPH: 20 min after initiation of the reaction
[5] = Metabolism and stability of PTI in human intestine microsomes; type: in vitro ADME; conditions: 0.25 mg/ml protein, 37°C
[6] = Metabolism and stability of PTI in human kidney microsomes; type: in vitro ADME; conditions: 0.25 mg/ml protein, 37°C
[7] = Metabolism and stability of PTI in human lung microsomes; type: in vitro ADME; conditions: 0.25 mg/ml protein, 37°C
CYP2D6 = CYP2D6 (Homo sapiens, UniProt P10635); conditions: recombinant CYP2D6, DFP pre-treated, PTI 2 to 200 µM, 1 h
CYP3A4 = CYP3A4 (Homo sapiens, UniProt P08684); conditions: recombinant CYP3A4, DFP pre-treated, PTI 2 to 200 µM, 1 h
[8] = UDP-glucuronic acid, in the presence of DFP, 2 h
[9] = PTI 10 mg/kg oral in corn oil, 3 h post-dosing
[10] = 37°C, NADPH-regenerating solution
[11] = twenty minutes after initiation, PTI 75 µM

CYP3A4, sequence (P08684 whole entry): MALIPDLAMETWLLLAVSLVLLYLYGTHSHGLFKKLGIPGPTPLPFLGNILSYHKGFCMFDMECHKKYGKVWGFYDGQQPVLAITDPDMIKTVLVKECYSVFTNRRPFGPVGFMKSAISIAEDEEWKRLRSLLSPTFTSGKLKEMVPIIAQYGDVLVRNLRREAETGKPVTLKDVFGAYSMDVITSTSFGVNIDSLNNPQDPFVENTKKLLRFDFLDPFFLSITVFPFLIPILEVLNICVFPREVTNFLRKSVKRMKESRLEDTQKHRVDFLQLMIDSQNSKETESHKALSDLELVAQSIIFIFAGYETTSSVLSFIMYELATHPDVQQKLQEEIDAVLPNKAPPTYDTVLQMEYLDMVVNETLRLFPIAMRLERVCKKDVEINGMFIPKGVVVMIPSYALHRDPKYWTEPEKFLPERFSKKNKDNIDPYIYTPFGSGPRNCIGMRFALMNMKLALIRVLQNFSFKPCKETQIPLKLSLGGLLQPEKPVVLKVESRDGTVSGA
CYP2D6, sequence (P10635 whole entry): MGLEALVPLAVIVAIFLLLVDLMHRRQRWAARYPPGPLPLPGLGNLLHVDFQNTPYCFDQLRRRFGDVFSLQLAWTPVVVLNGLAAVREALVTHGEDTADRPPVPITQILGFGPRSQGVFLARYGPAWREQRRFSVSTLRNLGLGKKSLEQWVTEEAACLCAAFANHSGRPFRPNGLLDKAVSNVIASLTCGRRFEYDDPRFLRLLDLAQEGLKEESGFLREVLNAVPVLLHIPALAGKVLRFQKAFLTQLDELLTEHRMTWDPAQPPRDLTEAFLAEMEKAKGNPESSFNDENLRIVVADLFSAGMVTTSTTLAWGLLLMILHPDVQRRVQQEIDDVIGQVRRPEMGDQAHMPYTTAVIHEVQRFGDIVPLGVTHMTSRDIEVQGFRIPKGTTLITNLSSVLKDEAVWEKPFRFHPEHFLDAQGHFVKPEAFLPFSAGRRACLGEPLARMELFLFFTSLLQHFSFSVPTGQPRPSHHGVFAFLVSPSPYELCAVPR

## COc1ccc2c(c1)c(CC(=O)O)c(C)n2C(=O)c1ccc(Cl)cc1 [IND, indomethacin, reference compound]
[1]
  glucuronidation by UGT 2B7: capable of catalyzing the glucuronidation of IND

## CCOP(=O)(OCC)OCCc1ccc(OC(=O)Cc2c(C)n(C(=O)c3ccc(Cl)cc3)c3ccc(OC)cc23)cc1 [PTI, Phospho-tyrosol-indomethacin]
[2]; 37°C
  CLint: 172.4 mL/min/g
[2]; [10]
  t1/2: 8.0 min
[2]; [11]
  PTI hydrolyzed to yield IND: 80%
[3]; 37°C
  CLint: 36.9 mL/min/g
[3]; [10]
  t1/2: 37.6 min
[3]; [11]
  PTI hydrolyzed to yield IND: 22%
[4]; human liver microsomes, 0.5 mg/ml protein, 37°C
  CLint: 100.0 mL/min/g
[4]; human liver microsomes, 0.5 mg/ml protein, 37°C, NADPH-regenerating solution
  t1/2: 13.9 min
[4]; human liver microsomes, twenty minutes after initiation, PTI 75 µM, 0.5 mg/ml protein
  PTI hydrolyzed to yield IND: 52%
[5]
  CLint: 210.0 mL/min/g
[5]; NADPH-regenerating solution
  t1/2: 13.2 min
[6]
  CLint: 35.9 mL/min/g
[6]; NADPH-regenerating solution
  t1/2: 77.3 min
[7]
  CLint: 8.0 mL/min/g
[7]; NADPH-regenerating solution
  t1/2: 348.0 min
CYP2D6
  O-demethylation of PTI Vmax: 70.0 pmol/min/ pmol CYP
CYP3A4
  O-demethylation of PTI Vmax: 1.5 pmol/min/ pmol CYP
[8]
  glucuronidation in HLMs: not glucuronidated
[9]
  intact drug in rat plasma: not detected

## COc1ccc2[nH]c(C)c(CC(=O)O)c2c1 [debenzoyl-IND]
[4]
  metabolite formation in PTI-treated HLMs in the absence of NADPH: detected

## Cc1c(CC(=O)O)c2cc(O)ccc2n1C(=O)c1ccc(Cl)cc1 [demethyl-IND]
[4]
  metabolite formation in PTI-treated HLMs in the absence of NADPH: not detected
